Reference: ChEMBL document CHEMBL3758078, “Modification of the anabaseine pyridine nucleus allows achieving binding and functional selectivity for the α3β4 nicotinic acetylcholine receptor subtype” (Eur J Med Chem, 2016)
The source made the active and inactive calls. No cut-off for these calls is given here.

Columns and labels:
[1] = biological target: T1, Neuronal acetylcholine receptor; alpha3/beta4 (Homo sapiens, UniProt P30926+P32297); assay: Displacement of [3H]-epibatidine from human alpha3beta4 nACh receptor expressed in HEK293 cells preincubated for 5 mins followed by radioligand addition by beta counting analysis; assay type: cell-based
Homo sapiens [2] = species on record: Homo sapiens; assay: Selectivity ratio of Ki for rat alpha7 nACh receptor to Ki for human alpha3beta4 nACh receptor
[3] = biological target: Neuronal acetylcholine receptor; alpha4/beta2 (Rattus norvegicus, UniProt P09483+P12390); assay: Displacement of [3H]-epibatidine from rat alpha4beta2 nACh receptor expressed in rat cortical membrane preincubated for 30 mins followed by radioligand addition by […] analysis; assay type: cell membranes
Homo sapiens [4] = species on record: Homo sapiens; assay: Selectivity ratio of Ki for rat alpha4beta2 nACh receptor to Ki for human alpha3beta4 nACh receptor
[5] = biological target: Neuronal acetylcholine receptor subunit alpha-7 (Rattus norvegicus, UniProt Q05941); assay: Displacement of [125I] alpha bungarotoxin from rat alpha7 nACh receptor expressed in rat hippocampal membrane preincubated for 30 mins followed by radioligand addition by gamma counting analysis; assay type: cell membranes, Hippocampus
[6] = biological target: T1, Neuronal acetylcholine receptor; alpha3/beta4; assay: Agonist activity at human alpha3beta4 nACh receptor expressed in rat GH4C1 cells assessed as increase in current amplitudes after 2 to 3 days by patch clamp assay; assay type: cell-based, GH4-C1
[7] = biological target: T2, Neuronal acetylcholine receptor subunit alpha-7 (Homo sapiens, UniProt P36544); assay: Agonist activity at human alpha7 nACh receptor expressed in rat GH4C1 cells assessed as increase in current amplitudes after 2 to 3 days by patch clamp assay; assay type: cell-based, GH4-C1
[8] = biological target: T3, Neuronal acetylcholine receptor; alpha4/beta2 (Homo sapiens) (UniProt P17787+P43681); assay: Antagonist activity at human alpha4beta2 nACh receptor; assay type: protein-complex assay
[9] = biological target: T1, Neuronal acetylcholine receptor; alpha3/beta4; assay: Antagonist activity at human alpha3beta4 nACh receptor; assay type: protein-complex assay
[10] = biological target: T1, Neuronal acetylcholine receptor; alpha3/beta4; assay: Agonist activity at human alpha3beta4 nACh receptor expressed in rat […] cells assessed as increase in current amplitudes at 0.1 to 100 uM after 2 to 3 days by patch clamp assay relative to acetylcholine; assay type: cell-based
[11] = biological target: T2, Neuronal acetylcholine receptor subunit alpha-7; assay: Agonist activity at human alpha7 nACh receptor expressed in rat GH4C1 cells assessed as increase in current amplitudes at 0.1 to 100 uM after 2 to 3 days by patch clamp assay; assay type: cell-based; conditions: GH4-C1
[12] = biological target: T3, Neuronal acetylcholine receptor; alpha4/beta2 (Homo sapiens); assay: Agonist activity at human alpha4beta2 nACh receptor expressed in rat […] cells assessed as increase in current amplitudes at 0.1 to 100 uM after 2 to 3 days by patch clamp assay; assay type: cell-based

T1 sequence (P30926 whole entry): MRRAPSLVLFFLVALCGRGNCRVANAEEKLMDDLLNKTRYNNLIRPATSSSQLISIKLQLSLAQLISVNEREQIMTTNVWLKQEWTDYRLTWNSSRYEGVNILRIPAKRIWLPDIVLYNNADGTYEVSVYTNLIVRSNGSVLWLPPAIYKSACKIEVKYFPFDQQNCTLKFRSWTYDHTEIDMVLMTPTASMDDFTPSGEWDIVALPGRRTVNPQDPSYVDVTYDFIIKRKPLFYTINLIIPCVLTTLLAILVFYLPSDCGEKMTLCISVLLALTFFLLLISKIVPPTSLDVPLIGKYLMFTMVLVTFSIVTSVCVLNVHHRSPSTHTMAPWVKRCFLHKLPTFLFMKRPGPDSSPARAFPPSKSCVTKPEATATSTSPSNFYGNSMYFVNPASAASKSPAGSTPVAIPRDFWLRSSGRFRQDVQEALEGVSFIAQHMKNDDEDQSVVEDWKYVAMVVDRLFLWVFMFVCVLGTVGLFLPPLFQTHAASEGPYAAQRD
T1 sequence (P32297 whole entry): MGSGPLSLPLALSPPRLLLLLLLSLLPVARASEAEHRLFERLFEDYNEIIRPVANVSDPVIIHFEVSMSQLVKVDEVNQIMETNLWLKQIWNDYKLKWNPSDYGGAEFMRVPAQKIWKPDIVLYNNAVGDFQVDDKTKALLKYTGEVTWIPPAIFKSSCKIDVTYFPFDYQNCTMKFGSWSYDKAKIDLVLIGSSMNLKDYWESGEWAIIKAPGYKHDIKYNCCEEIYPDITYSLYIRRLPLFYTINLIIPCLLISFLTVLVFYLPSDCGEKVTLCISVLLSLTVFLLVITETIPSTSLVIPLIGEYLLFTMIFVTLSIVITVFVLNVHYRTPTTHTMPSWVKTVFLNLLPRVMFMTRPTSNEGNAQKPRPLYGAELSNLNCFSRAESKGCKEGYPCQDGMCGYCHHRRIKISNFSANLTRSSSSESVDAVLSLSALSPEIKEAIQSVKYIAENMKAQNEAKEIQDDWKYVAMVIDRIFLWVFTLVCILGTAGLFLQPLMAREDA
Sequence of Neuronal acetylcholine receptor subunit alpha-7 (Rattus norvegicus, UniProt Q05941) (Q05941 whole entry): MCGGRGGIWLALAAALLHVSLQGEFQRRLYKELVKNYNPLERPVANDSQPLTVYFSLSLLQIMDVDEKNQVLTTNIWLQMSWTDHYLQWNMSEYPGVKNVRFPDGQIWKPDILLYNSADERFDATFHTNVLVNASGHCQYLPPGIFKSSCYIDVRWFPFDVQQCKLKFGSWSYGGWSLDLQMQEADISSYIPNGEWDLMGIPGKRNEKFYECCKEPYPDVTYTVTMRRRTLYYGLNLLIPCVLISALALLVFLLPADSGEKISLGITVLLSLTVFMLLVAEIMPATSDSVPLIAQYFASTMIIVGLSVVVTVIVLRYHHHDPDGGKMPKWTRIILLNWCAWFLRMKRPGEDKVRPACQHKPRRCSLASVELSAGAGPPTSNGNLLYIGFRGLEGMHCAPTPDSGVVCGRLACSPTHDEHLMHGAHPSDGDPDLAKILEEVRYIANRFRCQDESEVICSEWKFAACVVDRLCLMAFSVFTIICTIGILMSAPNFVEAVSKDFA
Sequence of Neuronal acetylcholine receptor; alpha4/beta2 (P09483 whole entry): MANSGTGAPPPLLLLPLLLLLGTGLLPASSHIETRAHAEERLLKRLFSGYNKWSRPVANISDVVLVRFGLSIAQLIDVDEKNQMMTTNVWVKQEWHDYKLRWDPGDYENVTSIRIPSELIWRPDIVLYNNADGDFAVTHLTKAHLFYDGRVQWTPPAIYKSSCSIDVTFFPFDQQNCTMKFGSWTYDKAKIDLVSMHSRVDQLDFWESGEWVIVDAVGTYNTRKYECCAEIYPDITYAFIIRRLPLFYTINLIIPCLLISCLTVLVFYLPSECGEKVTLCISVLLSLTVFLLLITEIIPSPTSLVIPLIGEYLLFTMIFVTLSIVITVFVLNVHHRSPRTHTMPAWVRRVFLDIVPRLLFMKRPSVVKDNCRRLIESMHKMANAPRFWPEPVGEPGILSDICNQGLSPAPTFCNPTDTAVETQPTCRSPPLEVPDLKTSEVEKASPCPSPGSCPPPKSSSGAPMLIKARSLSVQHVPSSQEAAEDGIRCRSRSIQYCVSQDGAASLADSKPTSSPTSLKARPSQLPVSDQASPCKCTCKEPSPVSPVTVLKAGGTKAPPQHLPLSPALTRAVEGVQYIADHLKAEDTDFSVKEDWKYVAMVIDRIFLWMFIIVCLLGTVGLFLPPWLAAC
Sequence of Neuronal acetylcholine receptor; alpha4/beta2 (P12390 whole entry): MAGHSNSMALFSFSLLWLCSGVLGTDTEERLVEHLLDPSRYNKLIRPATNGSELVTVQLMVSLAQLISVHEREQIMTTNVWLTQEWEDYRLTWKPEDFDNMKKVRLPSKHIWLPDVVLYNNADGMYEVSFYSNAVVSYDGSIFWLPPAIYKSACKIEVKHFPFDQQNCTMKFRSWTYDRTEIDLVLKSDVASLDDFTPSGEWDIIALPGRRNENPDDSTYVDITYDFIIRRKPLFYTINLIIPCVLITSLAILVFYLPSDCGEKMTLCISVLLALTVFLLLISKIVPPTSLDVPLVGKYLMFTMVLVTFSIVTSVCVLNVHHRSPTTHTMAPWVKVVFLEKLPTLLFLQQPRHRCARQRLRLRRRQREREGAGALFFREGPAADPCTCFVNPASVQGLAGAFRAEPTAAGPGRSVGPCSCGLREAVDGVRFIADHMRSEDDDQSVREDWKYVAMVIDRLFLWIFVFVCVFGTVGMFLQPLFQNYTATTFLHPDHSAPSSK
T2 sequence (P36544 whole entry): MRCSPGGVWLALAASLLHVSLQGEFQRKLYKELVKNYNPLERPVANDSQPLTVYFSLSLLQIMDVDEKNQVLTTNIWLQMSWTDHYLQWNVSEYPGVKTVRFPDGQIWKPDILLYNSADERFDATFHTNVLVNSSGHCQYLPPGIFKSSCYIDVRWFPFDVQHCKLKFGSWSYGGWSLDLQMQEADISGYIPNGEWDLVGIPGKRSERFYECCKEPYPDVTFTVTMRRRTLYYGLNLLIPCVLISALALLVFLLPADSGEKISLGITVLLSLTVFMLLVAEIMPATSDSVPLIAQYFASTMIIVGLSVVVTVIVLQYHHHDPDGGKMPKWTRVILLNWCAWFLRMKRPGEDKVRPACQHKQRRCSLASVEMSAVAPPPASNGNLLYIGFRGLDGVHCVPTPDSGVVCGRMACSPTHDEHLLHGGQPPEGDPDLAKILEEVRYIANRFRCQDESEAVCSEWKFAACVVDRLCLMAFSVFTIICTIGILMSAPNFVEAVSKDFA

| Compound | Ki [1] | Ratio Ki (Homo sapiens [2]) | Ki [3] | Ratio Ki (Homo sapiens [4]) | Ki [5] | EC50 [6] | EC50 [7] | inhibition [8] | inhibition [9] | Emax [10] | Activity [11] | Activity [12] |
| --- | --- | --- | --- | --- | --- | --- | --- | --- | --- | --- | --- | --- |
| Oc1cccc([C@H]2C[C@@H]3CC[C@H]2N3)c1 (racemic) | 80 nM | 7.6 | 127 nM | 1.6 | 609 nM | – | – | – | – | – | – | – |
| c1ccc(C2=NCCCC2)cc1 | 194 nM | 12 | 2080 nM | 11 | 2400 nM | – | – | – | – | – | – | – |
| OCc1cc(F)cc(C2=NCCCC2)c1 | 80 nM | 10 | 744 nM | 9.3 | 821 nM | – | – | – | – | – | – | – |
| Cc1cccc(C2=NCCCC2)c1 | 155 nM | 2.5 | 1450 nM | 9.4 | 384 nM | – | – | – | – | – | – | – |
| OCc1cccc(C2=NCCCC2)c1 | 80 nM | 2 | 35000 nM | 438 | 158 nM | 20000 nM | 60000 nM | – | – | – | – | – |
| Brc1cccc(C2=NCCCC2)c1 | 29.8 nM | 1.5 | 5020 nM | 168 | 43.2 nM | – | – | – | – | – | – | – |
| Oc1cccc(C2=NCCCC2)c1 | 680 nM | 14 | 32000 nM | 47 | 9300 nM | – | – | – | – | – | – | – |
| Fc1cc(Br)cc(C2=NCCCC2)c1 | 48 nM | 4.3 | 1770 nM | 37 | 204 nM | – | – | – | – | – | – | – |
| Clc1cccc(C2=NCCCC2)c1 | 77.2 nM | 5.1 | 11500 nM | 149 | 394 nM | – | – | – | – | – | – | – |
| Brc1cc(Br)cc(C2=NCCCC2)c1 | 70.8 nM | 4.8 | 18800 nM | 266 | 343 nM | – | – | inactive | inactive | – | – | – |
| Fc1cccc(C2=NCCCC2)c1 | 108 nM | 22 | 2040 nM | 19 | 2370 nM | – | – | – | – | – | – | – |
| OCc1cccc([C@H]2C[C@@H]3CC[C@H]2N3)c1 (racemic) | 92 nM | 20 | 429 nM | 4.7 | 1800 nM | – | – | – | – | – | – | – |
| c1cncc(C2=NCCCC2)c1 [ANABASEINE] | 107 nM | 0.3 | 67 nM | 0.6 | 32 nM | – | – | – | – | – | – | – |
| Ic1cccc(C2=NCCCC2)c1 | 4.7 nM | 2.4 | 3790 nM | 806 | 11.3 nM | – | – | inactive | inactive | 60% | inactive | inactive |
